In patent US9889180B2, “Method of treating cancer” (Agency for Science, Technology and Research, priority 2012, dated 2018):
“Also recorded” adds a separate entry of the source.

Assays:
Assay type in all cases: cell-based, human
[1] = system: DU145 cells; assay: FACS sub-G1 DNA analysis (apoptosis) in DU145 cells; details: for apoptosis (sub-G1) after knockdown: siRNA knockdown in combination with IFN-γ
Protocol: For the assessment of cell death, cells were harvested in 70% ethanol. Fixed cells were stained with Propidium Iodide (P.I) (50 μg/mL). The stained cells were analyzed for DNA content by FACS in a FACSCalibur (Becton Dickinson Instrument). % of cell death was defined as the sub-G1 population quantified using the CellQuest software (Becton Dickinson). The percentage of dead cells or sub-G1 cells was calculated by comparing the results of each experiment to the results from DMSO-treated cells. Each assay was repeated a minimum of three times, with results reported as means+s.e.m.

[2] = system: IFN responsive genes (MX1, IRF1, IFI16); assay: qRT-PCR of IFN responsive genes in PC3 cells; details: in response to IFN-γ stimulation
Protocol: Target-specific siRNA and non-targeting control siRNA were purchased from 1st Base Singapore and Integrated DNA technologies (IDT) with the following target sequences respectively: EZH2 siRNA: 5′-GACUCUGAAUGCAGUUGCU-3′ (SEQ ID NO: 1); MYC siRNA: 5′-[…]-3′ (SEQ ID NO:2). All siRNA were designed by 1st Base Singapore and IDT respectively. For transfection, 30 nM siRNAs were used to transfect cells. 48 h after transfection cell pellets were collected and subjected indicated assays.
(§1) Total RNA was isolated by using Trizol (Invitrogen) and purified with the RNeasy Mini Kit (Qiagen). The microarray hybridization was performed using the Illumina Gene Expression Sentrix BeadChip HumanRef-8_V3, and data analysis was performed by GeneSpring software from Agilent Technologies as described previously. The analyzed gene sets by GeneSpring were next subjected to Ingenuity Pathway Analysis (IPA) for gene ontology (GO) analysis. Reverse transcription and quantitative PCR assays were performed using High Capacity cDNA Archive kit and KAPA SyBr Fast qPCR kit (KAPA biosystems). For quantification of mRNA levels, 18S level was used as an internal control. All reactions were analyzed in an Applied Biosystems PRISM 7500 Fast Real-Time PCR system in 96-well plate format.

[3] = system: IFNGR1 expression and STAT1 activation; assay: qRT-PCR and western blot of IFNGR1 and IFN signaling in MCF7 cells; details: for IFNGR1 expression: ER+ luminal MCF7 cells
Protocol: as §1
(§2) Western Blotting was performed as described previously. Briefly, Cells were scraped, collected, and lysed in RIPA buffer. To release histones from chromatin, cell lysates were further sonicated for 15 sec using a XL2000 Microson Ultrasonic Processor (Misonix). Equal amounts of protein (30 μg) were separated on SDS-polyacrylamide gels and transferred to PVDF membranes. The blots were probed with antibodies against EED (07-368), SUZ12 (07-379), trimethylated H3-K27 (07-449), Acetyl-Histone H3 (06-599), which were purchased from Upstate Biotechnology. IFNGR1 (GIR-94) and anti-IFI16 (1G7) were purchased from Santa Cruz. EZH2 phospho S21 (00388) was purchased from Bethyl Laboratories. EZH2 (AC22), P110α PI3K, p-AKT (T308), p-AKT (S473), pSTAT1Y701, total STAT1, Histone H3 (3H1), Beclin-1 and cleaved PARP were purchased from Cell Signaling. Myc and Actin were purchased from Roche Applied Science and Sigma-Aldrich, respectively.

[4] = system: IFNGR1 expression and IFN-γ-STAT1 signaling; assay: qRT-PCR and western blot of IFNGR1 expression and IFN-γ signaling in DU145 cells
Protocol: All cells were maintained at 37° C. with 5% CO2. Cells were grown until they were 80% confluent before they are treated the respective drugs. For drug treatment, DZNep and GSK126 were purchased from Pharmaron Inc. (Beijing, China), GSK343 was kindly provided by Chemical Probes of University of Toronto, 5′Aza, TSA and human recombinant IFN-γ was purchased from Sigma. For rescue experiment using IFNGR1 blocking antibody, the neutralizing antibody that specifically targets IFNGR1 (anti-CD119, GIR-208, BD Pharmingen) was added to the medium 4 hour prior to the addition of DZNep or/and IFN-γ. Total RNA was isolated by using Trizol (Invitrogen) and purified with the RNeasy Mini Kit (Qiagen). The microarray hybridization was performed using the Illumina Gene Expression Sentrix BeadChip HumanRef-8_V3, and data analysis was performed by GeneSpring software from Agilent Technologies as described previously. The analyzed gene sets by GeneSpring were next subjected to Ingenuity Pathway Analysis (IPA) for gene ontology (GO) analysis. Reverse transcription and quantitative PCR assays were performed using High Capacity cDNA Archive kit and KAPA SyBr Fast qPCR kit (KAPA biosystems). For quantification of mRNA levels, 18S level was used as an internal control. All reactions were analyzed in an Applied Biosystems PRISM 7500 Fast Real-Time PCR system in 96-well plate format. Western Blotting was performed as described previously. Briefly, Cells were scraped, collected, and lysed in RIPA buffer. To release histones from chromatin, cell lysates were further sonicated for 15 sec using a XL2000 Microson Ultrasonic Processor (Misonix). Equal amounts of protein (30 μg) were separated on SDS-polyacrylamide gels and transferred to PVDF membranes. The blots were probed with antibodies against EED (07-368), SUZ12 (07-379), trimethylated H3-K27 (07-449), Acetyl-Histone H3 (06-599), which were purchased from Upstate Biotechnology. IFNGR1 (GIR-94) and anti-IFI16 (1G7) were purchased from Santa Cruz. EZH2 phospho S21 (00388) was purchased from Bethyl Laboratories. EZH2 (AC22), P110α PI3K, p-AKT (T308), p-AKT (S473), pSTAT1Y701, total STAT1, Histone H3 (3H1), Beclin-1 and cleaved PARP were purchased from Cell Signaling. Myc and Actin were purchased from Roche Applied Science and Sigma-Aldrich, respectively.

[5] = system: IFNGR1 expression; assay: qRT-PCR of IFNGR1 in MDA-MB-231 cells; details: ER− basal like MDA-MB-231 cells
Protocol: as §1
as §2, with “EZH2 phospho S21 (00388) was purchased from Bethyl Laboratories. EZH2 (AC22), P110α PI3K, p-AKT (T308), p-AKT (S473), pSTAT1Y701, total STAT1, Histone H3 (3H1), Beclin-1 and cleaved PARP were purchased from Cell Signaling. Myc and Actin were purchased from Roche Applied Science and Sigma-Aldrich, respectively.” left out

[6] = in response to IFN-γ stimulation

Compound	apoptosis (sub-G1) after knockdown [1]	apoptosis (sub-G1) after knockdown ([1]; listed as siEZH2)	activation of IFN genes after knockdown [2]	IFNGR1 expression [3]	IFNGR1 protein expression after knockdown [4]	STAT1 phosphorylation and IFI16 expression after knockdown [4, 6]	activation of IFN genes after knockdown [4, 6]	IFNGR1 expression [5]	apoptosis (sub-G1) ([1]; DZNep (2.5 μM) combined with increasing doses of IFN-γ, 3 days)	IFNGR1 expression ([3]; hydrochloride)	STAT1 activation and PARP cleavage ([3]; MCF-7 cells, DZNep co-treated with IFN-γ)	expression of IFN genes ([4]; DZNep (2.5 μM) combined with IFN-γ)	STAT1 phosphorylation ([4]; DZNep (2.5 μM) combined with IFN-γ, 3 days)	IFNGR1 expression ([4]; DZNep (2.5 μM), 3 days, hydrochloride)	IFNAR1 expression ([4]; DZNep treatment)
EZH2 knockdown: EZH2 siRNA: 5′-GACUCUGAAUGCAGUUGCU-3′ (SEQ ID NO: 1) (other strand not given here)	apoptosis induction	specifically enhances IFN-γ mediated cell death	robust activation of IFN genes	induction of IFNGR1 at both mRNA and protein levels	restored the IFNGR1 protein expression	enhanced the STAT1 phosphorylation and the expression of IF116	robust activation of IFN genes	not seen	–	–	–	–	–	–	–
Cl.Nc1nccc2c1ncn2[C@@H]1C=C(CO)[C@@H](O)[C@H]1O [DZNep, (−)-1-[(1R,4R,5S)-3-(Hydroxymethyl)-4,5-dihydroxy-2-cyclopenten-1-yl]4-aminoimidazo[4,5-c]pyridine hydrochloride]	–	–	–	–	–	–	–	not seen	synergistic induction of cell death	induction of IFNGR1 at both mRNA and protein levels; also recorded: restored the IFNGR1 expression	increased STAT1 activation and PARP cleavage	strong inductions of IFN genes	strong inductions	induced the expression of IFNGR1; also recorded: induced a marked expression of IFNGR1	did not change IFNAR1 expression
